Data reported in ChEMBL document CHEMBL3885861, “Open TG-GATES”.

Species on record: Rattus norvegicus
Test: Open TG-GATES - Regimen: Single
Type: toxicity, organism-based, Sprague-Dawley
Parameters: regimen Single, gender Male, age 6 weeks
Settings: in vivo, po, 100 mg/kg, route gavage, dose level Low; for APTT / Bas / Eos / Fbg / Hb / Ht / Lym / MCH / MCHC / MCV / Mono / Neu / PT / Plat / RBC / Ret / WBC: tissue Blood; for KIDNEY_L / KIDNEY_R / KIDNEY_TOTAL: tissue Kidney; for LIVER: tissue Liver; for A/G / ALP / ALT / AST / BUN / CRE / Ca / Cl / DBIL / GLC / IP / K / LDH / Na / PL / RALB / TBIL / TC / TG / TP / gamma-GTP: tissue Plasma

CCc1cc(C(N)=S)ccn1 [ETHIONAMIDE]
TERMINAL_BW (3 h): 224.2 g
APTT (3 h): 16.6 s
Bas (3 h): 0%
Eos (3 h): 1%
Fbg (3 h): 211.2 mg/dL
Hb (3 h): 13.8 g/dL
Ht (3 h): 40.6%
Lym (3 h): 73.6%
MCH (3 h): 21.8 pg
MCHC (3 h): 34%
MCV (3 h): 64 fL
Mono (3 h): 8.4%
Neu (3 h): 17.4%
PT (3 h): 12.4 s
Plat (3 h): 119.3 x10_4/uL
RBC (3 h): 635.8 x10_4/ul
Ret (3 h): 7.1%
WBC (3 h): 90.5 x10_2/uL
KIDNEY_L (3 h): 1 g
KIDNEY_R (3 h): 1 g
KIDNEY_TOTAL (3 h): 1.9 g
LIVER (3 h): 10.7 g
A/G (3 h): 1.9
ALP (3 h): 802.2 IU/L
ALT (3 h): 36 IU/L
AST (3 h): 68.6 IU/L
BUN (3 h): 15 mg/dL
CRE (3 h): 0.7 mg/dL
Ca (3 h): 11 mg/dL
Cl (3 h): 103 meq/L
DBIL (3 h): 0.012 mg/dL
GLC (3 h): 181.6 mg/dL
IP (3 h): 9.2 mg/dL
K (3 h): 4.4 meq/L
LDH (3 h): 109 IU/L
Na (3 h): 140.6 meq/L
PL (3 h): 128.4 mg/dL
RALB (3 h): 3.6 g/dL
TBIL (3 h): 0.4 mg/dL
TC (3 h): 73 mg/dL
TG (3 h): 58 mg/dL
TP (3 h): 5.5 g/dL
gamma-GTP (3 h): 1.6 IU/L
TERMINAL_BW (6 h): 229.4 g
APTT (6 h): 17.1 s
Bas (6 h): 0%
Eos (6 h): 0.8%
Fbg (6 h): 208.8 mg/dL
Hb (6 h): 14.2 g/dL
Ht (6 h): 42.1%
Lym (6 h): 77.6%
MCH (6 h): 22.1 pg
MCHC (6 h): 33.7%
MCV (6 h): 65.7 fL
Mono (6 h): 8%
Neu (6 h): 14.2%
PT (6 h): 13.4 s
Plat (6 h): 114.8 x10_4/uL
RBC (6 h): 640.6 x10_4/ul
Ret (6 h): 7.5%
WBC (6 h): 84 x10_2/uL
KIDNEY_L (6 h): 1 g
KIDNEY_R (6 h): 1 g
KIDNEY_TOTAL (6 h): 2 g
LIVER (6 h): 10.8 g
A/G (6 h): 1.8
ALP (6 h): 908.4 IU/L
ALT (6 h): 31.6 IU/L
AST (6 h): 77.4 IU/L
BUN (6 h): 15.6 mg/dL
CRE (6 h): 0.5 mg/dL
Ca (6 h): 11 mg/dL
Cl (6 h): 105.4 meq/L
DBIL (6 h): 0.004 mg/dL
GLC (6 h): 187.4 mg/dL
IP (6 h): 9.8 mg/dL
K (6 h): 4.5 meq/L
LDH (6 h): 123.4 IU/L
Na (6 h): 140.4 meq/L
PL (6 h): 126 mg/dL
RALB (6 h): 3.5 g/dL
TBIL (6 h): 0.4 mg/dL
TC (6 h): 69.6 mg/dL
TG (6 h): 54.4 mg/dL
TP (6 h): 5.5 g/dL
gamma-GTP (6 h): 1 IU/L
TERMINAL_BW (9 h): 222.6 g
APTT (9 h): 18.1 s
Bas (9 h): 0%
Eos (9 h): 1.4%
Fbg (9 h): 210.2 mg/dL
Hb (9 h): 14.2 g/dL
Ht (9 h): 42.2%
Lym (9 h): 70%
MCH (9 h): 21.7 pg
MCHC (9 h): 33.7%
MCV (9 h): 64.4 fL
Mono (9 h): 8.6%
Neu (9 h): 20%
PT (9 h): 14.1 s
Plat (9 h): 116.8 x10_4/uL
RBC (9 h): 655.2 x10_4/ul
Ret (9 h): 8.3%
WBC (9 h): 79.2 x10_2/uL
KIDNEY_L (9 h): 1 g
KIDNEY_R (9 h): 1 g
KIDNEY_TOTAL (9 h): 2 g
LIVER (9 h): 9.8 g
A/G (9 h): 2
ALP (9 h): 756.6 IU/L
ALT (9 h): 33.8 IU/L
AST (9 h): 73.4 IU/L
BUN (9 h): 15 mg/dL
CRE (9 h): 0.6 mg/dL
Ca (9 h): 10.7 mg/dL
Cl (9 h): 105.2 meq/L
DBIL (9 h): 0.018 mg/dL
GLC (9 h): 205.4 mg/dL
IP (9 h): 10.7 mg/dL
K (9 h): 4.5 meq/L
LDH (9 h): 95.6 IU/L
Na (9 h): 142 meq/L
PL (9 h): 100.4 mg/dL
RALB (9 h): 3.5 g/dL
TBIL (9 h): 0.4 mg/dL
TC (9 h): 53.4 mg/dL
TG (9 h): 28.4 mg/dL
TP (9 h): 5.3 g/dL
gamma-GTP (9 h): 1.4 IU/L
TERMINAL_BW (24 h): 231 g
APTT (24 h): 16.3 s
Bas (24 h): 0%
Eos (24 h): 1.2%
Fbg (24 h): 214.8 mg/dL
Hb (24 h): 14.3 g/dL
Ht (24 h): 42.3%
Lym (24 h): 62.4%
MCH (24 h): 21.6 pg
MCHC (24 h): 33.8%
MCV (24 h): 63.8 fL
Mono (24 h): 12.8%
Neu (24 h): 23.8%
PT (24 h): 12.2 s
Plat (24 h): 117.2 x10_4/uL
RBC (24 h): 663 x10_4/ul
Ret (24 h): 8%
WBC (24 h): 110 x10_2/uL
KIDNEY_L (24 h): 1.1 g
KIDNEY_R (24 h): 1.1 g
KIDNEY_TOTAL (24 h): 2.1 g
LIVER (24 h): 11.7 g
A/G (24 h): 1.9
ALP (24 h): 884.8 IU/L
ALT (24 h): 38.6 IU/L
AST (24 h): 80.4 IU/L
BUN (24 h): 16.4 mg/dL
CRE (24 h): 0.6 mg/dL
Ca (24 h): 10.9 mg/dL
Cl (24 h): 104.6 meq/L
DBIL (24 h): 0.026 mg/dL
GLC (24 h): 193.2 mg/dL
IP (24 h): 7.8 mg/dL
K (24 h): 4.6 meq/L
LDH (24 h): 90.4 IU/L
Na (24 h): 141.4 meq/L
PL (24 h): 136 mg/dL
RALB (24 h): 3.6 g/dL
TBIL (24 h): 0.3 mg/dL
TC (24 h): 67.6 mg/dL
TG (24 h): 103.8 mg/dL
TP (24 h): 5.5 g/dL
gamma-GTP (24 h): 1.8 IU/L
